The text below walks through data of patent publication US20190030053A1, “COMPOSITION FOR INCREASING EXPRESSION OF PGC-1alpha” (BENEBIOSIS CO., LTD., priority 2016, published 2019).

“Also recorded” adds a separate entry of the source.

In one test the test system is PGC-1α and related genes. In words: Gene expression by SL treatment in normal mouse models. The format is in vivo. To be noted: normal C57BL/6 mice, oral 0.1 mg/kg/day, 10 weeks, organs, skeletal muscles, abdominal fat. How it is done: In order to investigate relative gene expression changes by organs compared with before SL (3′-SL & 6′-SL) aministration, 4-week-old C57BL/6 mice were purchased from Dooyeul Biotech (Korea). Water was freely accessible, and a commercially available pellet feed (Dooyeul Biotech, Korea) was given for two weeks. […]
Sialyllactose or deionized water was orally administered daily. […] The dietary intake and body weight change were measured every 5 days. […]
The gene expression changes by administration of the SL (3′-SL & 6′-SL) compositions were quantitatively compared for eight main organs (heart, hippocampus, brain, spinal cord, lung, liver, spleen, and kidney), three skeletal muscles (soleus muscle, quadriceps femoris muscle, and gastrocnemius muscle), and abdominal fat. RNA was extracted by TRIzol agent (Invitrogen). cDNA was synthesized by using RNA, which has been extracted as above and quantified, and a reverse transcription system (Promega, USA). The expression patterns of PGC-1α and related genes were measured by using pre-designed primers and probes (Applied Biosystems; PGC-1α, Mm00447181_m1, GAPDH, and Mm99999915_q1) for the synthesized cDNA and analysis targets (Fndc5, PGC-1α, Erra, UCP1, SOD2, and GPX1). […]

Test [1] has as its system Alzheimer's disease model mice (3×Tg). As to the kind of experiment: Cognitive ability test (Morris water maze) in Alzheimer's disease models. The format is in vivo, mouse. The following applies: 3×Tg mice, oral 0.1 mg/kg/day; test for 7 days. From the text:
In order to investigate the changes in gene expression and cognitive ability by the treatment with SL (3′-SL & 6′-SL) compositions in Alzheimer's brain disease models, 6-week-old mice were purchased from Central Lab Animal (Korea). Water was freely accessible, and a commercially available pellet feed (Dooyeul Biotech, Korea) was given for two weeks. At 8 weeks of age, the mice were divided into three groups (composed of eight mice for each group): Eight 8-week-old male c57/BL6 mice (normal mice; initial body weight, average 35.6±3.3 g) treated with a normal diet were used for a control group. […]

Take `CC(=O)N[C@H]1[C@H]([C@H](O)[C@H](O)CO)O[C@@](O[C@H]2[C@@H](O)[C@@H](CO)O[C@@H](O[C@H]3[C@H](O)[C@@H](O)C(O)O[C@@H]3CO)[C@@H]2O)(C(=O)O)C[C@@H]1O` (stereo partly drawn) [3′-SL, α-NeuNAc-(2→3)-β-D-Gal-(1→4)-D-Glc]: the “expression levels of analysis targets (Fndc5, PGC-1α, Erra, UCP1) vs control group” value with PGC-1α and related genes (0.1 mg/kg/day) is recorded as “higher than the negative control group; also recorded: less effective than the 6′-SL administration groups”. Besides, the “escape time in the cognitive ability test (Morris water maze)” value in test [1] is “relatively low compared with 6′-SL”.

In the case of `CC(=O)N[C@H]1[C@H]([C@H](O)[C@H](O)CO)O[C@@](OC[C@H]2O[C@@H](O[C@H]3[C@H](O)[C@@H](O)[C@H](O)O[C@@H]3CO)[C@H](O)[C@@H](O)[C@H]2O)(C(=O)O)C[C@@H]1O` [6′-SL, α-NeuNAc-(2→6)-β-D-Gal-(1→4)-D-Glc], in the test on PGC-1α and related genes, the “expression levels of analysis targets (Fndc5, PGC-1α, Erra, UCP1) vs control group” value was “higher than the negative control group”. Besides, in test [1], the “escape time in the cognitive ability test (Morris water maze)” value is recorded as “definitely fast”.
